Counter-ions that a name gives are not always drawn. Where a SMILES comes first, the peptide text is derived from it.
Key:
Assay type in all cases: cell-based
[1] = system: COL1A1; test: In vitro efficacy in semi-activated LX2 cells, qPCR: COL1A1; conditions: 48 hours, Q-PCR; for inhibition at 100 µM: LX-2, test concentration 100 μM; for inhibition at 50 µM: LX-2, 50 µM; for inhibition at 12.5 µM: LX-2, test concentration 12.5 μM
Method: (§1) Test compounds were added to the LX-2 cells respectively, and total RNA in the cells was extracted 48 hours later. This experiment was performed strictly in accordance with the instructions of the Total RNA Kit. The steps were as follows (note: this experiment was performed on ice throughout the entire process, and special RNase-free tips were used throughout the entire process): • 1) The 12-well cell culture plate was taken out from the incubator, the cell culture medium was discarded, the cells were washed twice with 1 mL of 1×PBS, and a negative pressure suction device was used to fully remove PBS; • 2) 350 μL of TRK Lysis Buffer mixture/well was prepared as needed (mixture preparation method: 1 mL of TRKLysis Buffer+20 μL of β-mercaptoethanol), vortexed and mixed well. 350 μL was added to each well of the 12-well cell culture plate, and allowed to stand at room temperature for 5 minutes to fully lyse the cells; • 3) 70% ethanol/well was prepared as needed, vortexed and mixed well. 350 μL was added to each well of the 12-well cell culture plate, mixed well by shaking, and transferred to the spin column (spin column+collection tube were assembled); • 4) Centrifugation was performed at 4° C., 12000 g for 60 sec. The waste liquid was discarded after centrifugation, while the spin column was kept; • 5) 500 μL of RNA Wash Buffer I was added, centrifuged at 4° C., 12000 g for 60 sec, the waste liquid was discarded after centrifugation, and the collection column was kept; • 6) 500 μL of RNA Wash Buffer II (confirmed that ethanol had been added) was added, centrifuged at 4° C., 12000 g for 60 sec, the waste liquid was discarded after centrifugation, and the collection column was kept; • 7) step 6) was repeated once again, centrifugation was performed at 4° C., 12000 g for 90 sec, the waste liquid was discarded after centrifugation, and the collection column was kept; • 8) Centrifugation was performed at 4° C., 12000 g for 120 sec to ensure that the spin column was fully dried; • 9) The dried spin column was inserted into a new 1.5 mL EP tube, and 30 μL of DEPC water was added to the membrane in the center of the spin column. It should be careful not to touch the EP tube cover in this step. It was allowed to stand at room temperature for 5 minutes to ensure that the RNA was fully dissolved in DEPC water. Centrifugation was performed at 4° C., 12000 g for 60 sec, and the EP tube was kept; • 10) NanoDrop ultra-micro-volume spectrophotometer was used to detect RNA concentration;
(§2) 5.2 Reverse transcription of RNA into cDNA: According to the instructions of PrimeScript™ RT reagent Kit (Perfect Real Time), the specific experimental steps were as follows:
(§3) 5.3 Q-PCR detection of target gene expression: According to the instructions of Power SYBR® Green PCR Master Mix, the specific operations were as follows:
(§4) After the reaction was completed, the amplification curve and dissolution curve of Q-PCR were confirmed, and the relative quantification method ([…]) was used to perform data analysis on the experimental results.
(§5) LX2 cells were passaged and plated normally. […] After 48 hours, the cells were collected, total RNA was extracted, and Q-PCR was used to detect the changes in the mRNA expression levels of liver fibrosis-related genes (ACTA2 encoding α-SMA, COL1A1 and COLIA2 encoding collagen I, COL3A1 encoding collagen III, SMAD3 encoding Smad3) and inflammation-related genes (IL1β encoding IL-1β, TNFα encoding TNFα) (for specific methods, see 5. Q-PCR detection of target gene expression as described above). α-SMA was a marker of hepatic stellate cell activation, and collagen I and collagen III were the main components of extracellular matrix deposition.

[2] = system: COL3A1; test: In vitro efficacy in semi-activated LX2 cells, qPCR: COL3A1; conditions: 48 hours, Q-PCR; for inhibition at 100 µM: LX-2, test concentration 100 μM; for inhibition at 50 µM: LX-2, 50 µM; for inhibition at 12.5 µM: LX-2, test concentration 12.5 μM
Method: as §1, §2, §3, §4, §5

[3] = system: α-SMA; test: In vitro efficacy in semi-activated LX2 cells, qPCR: α-SMA; conditions: 48 hours, Q-PCR; for inhibition at 100 µM: test concentration 100 μM; for inhibition at 100 µM / inhibition at 50 µM / inhibition at 12.5 µM: read-out: α-SMA mRNA inhibition rate; for inhibition of the expression of α-SMA at the mRNA level: Table 2
Method: as §1, §2, §3, §4, §5

[4] = system: collagen I and collagen III; test: Semi-activated LX2 cells, qPCR: collagen I and collagen III at the mRNA level; conditions: 48 hours, Q-PCR, Table 2
Method: as §1, §3
LX2 cells were passaged and plated normally. After adherent growth for 12 hours, 50 µM of the test compound was added. After 48 hours, the cells were collected, total RNA was extracted, and Q-PCR was used to detect the changes in the mRNA expression levels of liver fibrosis-related genes (ACTA2 encoding α-SMA, COL1A1 and COLIA2 encoding collagen I, COL3A1 encoding collagen III, SMAD3 encoding Smad3) and inflammation-related genes (IL1β encoding IL-1β, TNFα encoding TNFα) (for specific methods, see 5. Q-PCR detection of target gene expression as described above). α-SMA was a marker of hepatic stellate cell activation, and collagen I and collagen III were the main components of extracellular matrix deposition. […]

[5] = system: Smad3; test: In vitro efficacy in semi-activated LX2 cells, qPCR: Smad3; conditions: 48 hours, Q-PCR; for inhibition at 50 µM: LX-2, 50 µM
Method: as §1, §2, §3, §4, §5

[6] = system: IL-1β; test: In vitro efficacy in semi-activated LX2 cells, qPCR: IL-1β; conditions: 48 hours, Q-PCR
Method: as §1, §2, §3, §4, §5

[7] = Homo sapiens, read-out: COL1A1 mRNA inhibition rate
[8] = Homo sapiens, read-out: COL3A1 mRNA inhibition rate
[9] = Homo sapiens, read-out: Smad3 mRNA inhibition rate

COC(=O)C[C@H](N)C(=O)OCOC(=O)C[C@H](N)C(=O)OC.Cl [Compound 74, 4-((((S)-2-amino-4-methoxy-4-oxobutyryl)oxy)methyl)1-methyl L-aspartic acid ester hydrochloride]
inhibition at 100 µM [1, 7]: 25 to 50% | inhibition at 100 µM [2, 8]: 25 to 50% | inhibition at 100 µM [3]: 25 to 50% | inhibition of the expression of collagen I and collagen III at the mRNA level [4]: could inhibit

CCOC(=O)C[C@H](N)C(=O)O [Compound 35, 4-ethyl L-aspartic acid ester]
inhibition at 50 µM [1, 7]: 10 to 25% | inhibition at 50 µM [2, 8]: 1 to 10% | inhibition of the expression of collagen I and collagen III at the mRNA level [4]: could inhibit

CC(C)(C)OC(=O)N[C@@H](CC(=O)OCc1ccccc1)C(=O)O [Compound 24]
inhibition at 50 µM [1, 7]: 1 to 10% | inhibition at 50 µM [2, 8]: 1 to 10%

CCOC(=O)C[C@H](N)C(=O)OCOC(=O)[C@@H](N)CC(=O)OCC [Compound 72, hydrochloride]
inhibition at 25 µM ([1]; Homo sapiens, LX-2, test concentration 25 μM, read-out: COL1A1 mRNA inhibition rate): 25 to 50% | inhibition at 25 µM ([2]; Homo sapiens, LX-2, test concentration 25 μM, read-out: COL3A1 mRNA inhibition rate): 25 to 50% | inhibition of the expression of collagen I and collagen III at the mRNA level [4]: could inhibit

N[C@H](C(=O)O)[C@@H](N)C(=O)O [Compound 43]
inhibition at 50 µM [5, 9]: 1 to 10% | inhibition at 50 µM [2, 8]: 1 to 10% | inhibition at 50 µM [3]: 1 to 10%

O=C(O)C[C@H](NC(=O)C1CC1)C(=O)O [Compound 60, (cyclopropylcarbonyl)-L-aspartic acid]
inhibition at 50 µM [5, 9]: 1 to 10% | inhibition at 50 µM [3]: 1 to 10%

COC(=O)C[C@H](NC(=O)[C@H](C)N)C(=O)O [Compound 67, (S)-2-((S)-2-aminopropionamido)-4-methoxy-4-oxobutyric acid hydrochloride] (HELM PEPTIDE1{A.D}|CHEM1{[CO[*:1]]}$PEPTIDE1,CHEM1,2:R3-1:R1$$$V2.0)
inhibition at 50 µM [2, 8]: 1 to 10%

COC(=O)C[C@H](N)C(=O)OCOC(=O)[C@@H](N)CC(=O)OC(C)C [Compound 71, 1-((((S)-2-amino-4-isopropoxy-4-oxobutyryl)oxy)methyl) 4-methyl L-aspartic acid ester hydrochloride]
inhibition at 12.5 µM [1, 7]: 10 to 25% | inhibition at 12.5 µM [2, 8]: 1 to 10% | inhibition of the expression of collagen I and collagen III at the mRNA level [4]: could inhibit

N[C@@H](CC(=O)O)C(=O)OCc1ccccc1 [Compound 20]
COL1A1 mRNA inhibition rate ([1]; test concentration 12.5 μM): E (E represented that the inhibition rate was 1% to 10%) | Smad3 mRNA inhibition rate ([5]; test concentration 12.5 μM): E (E represented that the inhibition rate was 1% to 10%) | COL3A1 mRNA inhibition rate ([2]; test concentration 12.5 μM): E (E represented that the inhibition rate was 1% to 10%) | α-SMA mRNA inhibition rate ([3]; test concentration 12.5 μM): E (E represented that the inhibition rate was 1% to 10%)

CC(C)OC(=O)C[C@H](N)C(=O)OCOC(=O)[C@@H](N)CC(=O)OC(C)C [Compound 73, 4-diisopropyl O′1,O1-methylene (2S,2'S)-bis (2-aminosuccinate) hydrochloride]
inhibition of the expression of α-SMA at the mRNA level [3]: could inhibit | inhibition at 12.5 µM ([3]; test concentration 12.5 μM): 10 to 25%

COC(=O)C[C@H](N)C(=O)OC.Cl [Compound 7]
IL-1β mRNA inhibition rate ([6]; test concentration 25 μM): E (E represented that the inhibition rate was 1% to 10%)

CC(C)(C)OC(=O)N[C@@H](CC(=O)O)C(=O)OCc1ccccc1 [Compound 21]
inhibition at 50 µM [1, 7]: 1 to 10% | inhibition at 50 µM [5, 9]: 1 to 10% | inhibition at 50 µM [2, 8]: 10 to 25% | inhibition at 50 µM [3]: 1 to 10% | inhibition of the expression of collagen I and collagen III at the mRNA level [4]: could inhibit

N[C@@H](CC(=O)O)C(=O)OCOC(=O)[C@@H](N)CC(=O)O [Compound 57, (3S,3'S)-4,4′-(methylenebis (oxy))bis (3-amino-4-oxobutyric acid) hydrochloride]
inhibition at 25 µM ([5]; Homo sapiens, LX-2, test concentration 25 μM, read-out: Smad3 mRNA inhibition rate): 1 to 10%

CCOC(=O)C[C@H](N)C(=O)OCOC(=O)[C@@H](N)CC(=O)OC [Compound 70, 1-((((S)-2-amino-4-ethoxy-4-oxobutyryl)oxy)methyl) 4-methyl L-aspartic acid ester hydrochloride]
inhibition at 100 µM [1, 7]: 1 to 10% | inhibition at 100 µM [2, 8]: 10 to 25% | inhibition of the expression of α-SMA at the mRNA level [3]: could inhibit | inhibition at 100 µM [3]: 50 to 75% | inhibition of the expression of collagen I and collagen III at the mRNA level [4]: could inhibit

COC(=O)C[C@H](N)C(=O)OC(C)OC(=O)[C@@H](N)CC(=O)OC [Compound 68, O′1,O1-(ethan-1,1-diyl)4-dimethyl (2S,2'S)-bis (2-aminosuccinate) hydrochloride]
inhibition at 100 µM [1, 7]: 1 to 10% | inhibition at 100 µM [2, 8]: 1 to 10% | inhibition of the expression of α-SMA at the mRNA level [3]: could inhibit | inhibition at 100 µM [3]: 25 to 50%

COC(=O)C[C@H](NC(C)=O)C(=O)O [Compound 63, 4-methyl acetyl-L-aspartic acid ester]
inhibition at 50 µM [2, 8]: 10 to 25% | inhibition at 50 µM [3]: 1 to 10% | inhibition of the expression of collagen I and collagen III at the mRNA level [4]: could inhibit

COC(=O)[C@H](Cc1ccccc1)NC(=O)C[C@H](N)C(=O)O [Compound 32]
inhibition at 50 µM [1, 7]: 10 to 25% | inhibition at 50 µM [2, 8]: 1 to 10% | inhibition at 50 µM [3]: 1 to 10%

CCC(=O)N[C@@H](CC(=O)O)C(=O)OC [Compound 66, 1-methyl propionyl-L-aspartic acid ester]
inhibition at 50 µM [1, 7]: 25 to 50% | inhibition of the expression of collagen I and collagen III at the mRNA level [4]: could inhibit

COC(=O)[C@H](CC(=O)O)NC(C)=O [Compound 65, 1-methyl acetyl-L-aspartic acid ester]
inhibition at 12.5 µM [1, 7]: 10 to 25% | inhibition at 12.5 µM [2, 8]: 1 to 10% | inhibition at 12.5 µM ([3]; test concentration 12.5 μM): 1 to 10%

N[C@@H](CC(=O)NC(c1ccccc1)(c1ccccc1)c1ccccc1)C(=O)O [Compound 27]
inhibition at 50 µM [5, 9]: 1 to 10%

COC(=O)[C@H](CC(=O)O)NC(=O)OCc1ccccc1 [Compound 25]
inhibition at 50 µM [1, 7]: 1 to 10% | inhibition at 50 µM [3]: 1 to 10%

C[C@@H](NC(=O)[C@@H](N)CC(=O)O)C(=O)NC1C(C)(C)SC1(C)C [Compound 38]
inhibition at 50 µM [1, 7]: 25 to 50% | inhibition at 50 µM [2, 8]: 1 to 10% | inhibition of the expression of collagen I and collagen III at the mRNA level [4]: could inhibit

CC(C)OC(=O)OCOC(=O)[C@@H](N)CC(=O)O [Compound 51, 1-(((isopropoxycarbonyl)oxy)methyl) L-aspartic acid ester hydrochloride]
inhibition at 50 µM [3]: 1 to 10%

COC(=O)[C@H](CC(=O)O)NC(=O)OCC1c2ccccc2-c2ccccc21 [Compound 5]
inhibition at 50 µM ([6]; Homo sapiens, LX-2, 50 µM, read-out: IL-1β mRNA inhibition rate): 1 to 10%

Source: patent US20250025438A1, “Derivative of aspartic acid and use thereof in treatment of metabolic diseases such as hepatic fibrosis and non-alcoholic hepatitis” (SHENZHEN JINGTAI TECHNOLOGY CO., LTD., priority 2021, published 2025)
